Test results reported in ChEMBL document CHEMBL1177677, “Tryptamine-derived alkaloids from Annonaceae exerting neurotrophin-like properties on primary dopaminergic neurons” (Bioorg Med Chem, 2010).

Experiments:
Neuron [1] = experiment: Neuritogenic effect in rat DA neurons assessed as total neurite length per […] immunopositive neurons at 10 nM relative to control; type: functional
Neuron [2] = experiment: Neuroprotective activity against degeneration of rat DA neurons assessed as […] immunopositive neurons at 10 nM by immunofluorescence staining relative to control; type: functional
[3] = Antioxidant activity assessed as ABTS radical scavenging activity; type: functional
Neuron [4] = experiment: Antioxidant activity in mesecephalic neuron assessed as ROS production at 10 uM by dihydrorhodamine-123 incorporation assay relative to control; type: functional
Neuron [5] = experiment: Antioxidant activity in mesecephalic neuron assessed as ROS production at 10 nM by dihydrorhodamine-123 incorporation assay relative to control; type: functional
Brain = experiment: Biodistribution in Swiss mouse brain at 150 mg/kg, iv; type: ADME, organism-based; set-up: dose 150 mg/kg, route intravenous; conditions: in vivo
Mus musculus = species on record: Mus musculus; experiment: Toxicity in Swiss mouse assessed as change in body weight, food intake; type: organism-based; conditions: in vivo
Neuron [6] = experiment: Neuroprotective activity against degeneration of rat DA neurons assessed as […] immunopositive neurons immunofluorescence staining at 200 nM relative to control; type: functional
Neuron [7] = experiment: Neuritogenic effect in rat DA neurons assessed as total neurite length per […] immunopositive neurons at 200 nM relative to control; type: functional

Row | SMILES | Activity (Neuron [1]) | Activity (Neuron [2]) | IC50 [3] | Activity (Neuron [5]) | other results
1 | CCCCCCCCCCCCCCCCCNCCc1c[nH]c2ccccc12 | 139% | 110.6% |  |  | 
2 | CCCCCCCCCCCCCCCCC(=O)NCCc1c[nH]c2ccccc12 | 136% | 106% |  |  | 
3 | Cc1c(C)c2c(c(C)c1O)CCC(C)(C(=O)O)O2 (stereo unspecified) [TROLOX] |  |  | 550 µM |  | Activity (Neuron [4]): 44%
4 | CCCCCCCCCCCCC(=O)NCCc1c[nH]c2ccccc12 | 126.2% | 98.5% | > 1000 µM |  | 
5 | CCCCC/C=C\C/C=C\CCCCCCCCNCCc1c[nH]c2ccccc12 | 156.7% | 137.5% | 340 µM | 44% | 
6 | OCCCCCCCCCCCCCCCNCCc1c[nH]c2ccccc12 | 160.8% | 129.4% | 730 µM | 43.7% | 
7 | CCCCCCCCCCCCCNCCc1c[nH]c2ccccc12 | 121.2% | 92.8% | 810 µM |  | 
8 | CCCCCCCCCCCCCCCCCCCCCCCNCCc1c[nH]c2ccccc12 | 141.2% | 129.6% | 670 µM |  | 
9 | CCCCCCCCCCCCCCC(=O)NCCc1c[nH]c2ccccc12 | 139% | 99.3% |  |  | 
10 | CCCCCCCCCCCCCCCCNCCc1c[nH]c2ccccc12 | 197% | 131.9% | 620 µM | 47.8% | Drug uptake (Brain): 21.8 ng/mL; Activity (Mus musculus): Non-toxic
11 | CCCCCCCCCCCCCCCCCCNCCc1c[nH]c2ccccc12 | 157.3% | 129.9% |  |  | 
12 | CCCCCCCCCCCCCCCCCCCC(=O)NCCc1c[nH]c2ccccc12 | 147.4% | 121.8% |  |  | 
13 | CCCCC/C=C\C/C=C\CCCCCCCC(=O)NCCc1c[nH]c2ccccc12 | 154% | 111.4% |  | 56.5% | 
14 | O=C(CCCCCCCCCCCCCCO)NCCc1c[nH]c2ccccc12 | 159.3% | 108% | > 1000 µM | 60.9% | 
15 | CCCCCCCCCCCCCCCC(=O)NCCc1c[nH]c2ccccc12 | 168.6% | 121.3% | > 1000 µM | 55.9% | 
16 | CCCCCCCCCCCCCCCCCCCCNCCc1c[nH]c2ccccc12 | 132.6% | 128.9% |  |  | 
17 | CCCCCCCCCCCCCCCCCC(=O)NCCc1c[nH]c2ccccc12 | 149.9% | 110% |  |  | 
18 | CCCCCCCCCCCCCCCNCCc1c[nH]c2ccccc12 | 132.7% | 106% |  |  | 
19 | CCCCCCCCCCCCCCCCCCCCCCC(=O)NCCc1c[nH]c2ccccc12 | 145.4% | 114% |  |  | 
20 | CCCC(=O)Nc1ncnc2c1ncn2[C@@H]1O[C@@H]2COP(=O)(O)O[C@H]2[C@H]1OC(=O)CCC [BUCLADESINE] |  |  |  |  | Activity (Neuron [6]): 149.9%; Activity (Neuron [7]): 333.1%
